Reference: patent publication US5563037A, “Homogeneous method for assay of double-stranded nucleic acids using fluorescent dyes and kit useful therein” (Johnson & Johnson Clinical Diagnostics, Inc., priority 1995, dated 1996)
“And” between values parts separate entries of the source, which are not always exact repeats. Equal values may be shown once.

Assays:
[1] = molecular target: double-stranded nucleic acids; test: Binding constant (Kb) of fluorescent dye with double-stranded nucleic acids; conditions: Kp from Molecular Probes catalog divided by 55
Text: The fluorescent dyes useful herein are generally defined as unsymmetrical cyanine dyes having a binding constant (Kb) within the range of from about 1×104 to about 5×105 (molar^-1). As used to define Kb, "about" refers to a variance of 10%. The dyes are also water-soluble or water-dispersible so they can bind to the nucleic acids in the aqueous reaction mixture. Depending upon the anions used, the dyes may be dissolved in a water-miscible solvent.
Particularly useful fluorescent dyes are commercially available from Molecular Probes, Inc. having the trade names and Kp values listed in Table I below. However, this invention is not to be construed as limited to the particular Molecular Probes, Inc. dyes listed therein since these are but preferred dyes. The cations of these preferred dyes are also identified below by chemical structure. The compounds can include any suitable divalent anion, or two monovalent anions. Iodide is preferred. [drawing 3]
*The Kb values in the table were calculated by dividing the partitio
coefficient (Kp) reported in the Molecular Probes, Inc. catalog, page 224
by 55, the molarity of water.

HIV-I DNA [2] = test: Example 3: fluorescence after amplification with dye; usefulness / PCR inhibition; assay type: biochemical; conditions: for Fluorescent Signal: amplified samples mixed with YOYO-1 (0.1 μmolar); for usefulness of dye / inhibition of PCR: dye in amplification
Method: The primers used in Example 3 had the following sequences which are complementary to the gag region of HIV-I DNA: Amplification experiments like those of Example 2 were also carried out to evaluate the usefulness of several other conventional fluorescent dye stains. In these assays, primers identified above as SEQ ID NO:3 and SEQ ID NO:4 were used, as well as the probe identified as SEQ ID NO:6. […] Fluorescence was determined as described in Example 2 except that all amplified samples were mixed with a solution of YOYO-1 (0.1 μmolar) to provide a common minimum threshold of signal.

HIV-I DNA [3] = test: Example 2: leuco dye color scores of amplified target in pouches; assay type: biochemical; conditions: dye added prior to amplification
Method: (§1) The method of this invention was compared to an amplification and detection method outside the scope of this invention, which was carried out using YOYO-1 (1 μmolar final concentration), a tetravalent fluorescent dye, in the buffered solution described above. This dye has the following structure: [drawing 4]
Amplification was carried out using self-contained chemical pouches such as those described in U.S. Pat. No. 5,229,297 (Schnipelsky et al). Those pouches contained the capture probe SEQ ID NO:5 attached to particles which were immobilized in a detection channel where reactions can take place.
The pouches were loaded with reagents, as follows:
(§2) The PCR reaction mixture of Example 1 (except the DNA polymerase) was made to a volume of 5472 μl. The resulting mixture was aliquoted into tubes A, B and C (1824 μl each) representing Samples A, B and C, respectively.
(§3) The sample in Tube A was diluted with buffer (220 μl) and subjected to amplification without any fluorescence dye present. The dye was added at the end of amplification for quantitative detection of the resulting products.
(§4) In addition to the PCR reagents, the sample in Tube B contained YOYO-1 fluorescent dye (0.1 μmolar) which had been added prior to amplification (220 μl of a 10 μmolar solution).
(§5) The sample in Tube C also contained YO-PRO-1 fluorescent dye (0.1 μmolar) which had been added prior to amplification (220 μl of a 10 μmolar solution).
(§6) The DNA polymerase (88 μl) and target HIV-I DNA target nucleic acid (220 μl) were then added to each tube, and the contents of the each of the three tubes were used to fill the PCR reagent compartment of eight pouches.
Amplification was carried out using the same procedures as in Example 1. The PCR protocol was similarly carried out for 40 cycles using a thermal cycler as follows:
1) Preheat to denature at 95° C. for 60 seconds,
priming and extension for 40 seconds at 63.5° C., and denaturation for 10 seconds at 95° C., and
3) final denaturation for 60 seconds at 95° C.
(§7) The results of amplification were detected in three ways: (1) color dye scores visually evaluated as 0 (no signal) to 10 (highest signal density), (2) ethidium bromide stained electrophoretic gels, and (3) fluorescence measured on a commercially available Perkin Elmer fluorimeter.
The noted color scores were obtained by using immobilized capture probes in the pouches with which the amplified target hybridized during incubation for 5 minutes at 42° C. The immobilized target was contacted with the conjugate solution (identified above) for 1 minute at 30° C., followed by the wash solution for 1 minute at 55° C. The leuco dye solution was then added at 30° C. and the resulting color signal was observed after two minutes incubation at 30° C. […]

HIV-I DNA [4] = test: Example 2: ethidium bromide stained electrophoretic gels of amplification products; assay type: biochemical
Method: The method of this invention was compared to an amplification and detection method outside the scope of this invention, which was carried out using YOYO-1 (1 μmolar final concentration), a tetravalent fluorescent dye, in the buffered solution described above. This dye has the following structure: [drawing 4] The PCR reaction mixture of Example 1 (except the DNA polymerase) was made to a volume of 5472 μl. The resulting mixture was aliquoted into tubes A, B and C (1824 μl each) representing Samples A, B and C, respectively. The sample in Tube A was diluted with buffer (220 μl) and subjected to amplification without any fluorescence dye present. The dye was added at the end of amplification for quantitative detection of the resulting products. In addition to the PCR reagents, the sample in Tube B contained YOYO-1 fluorescent dye (0.1 μmolar) which had been added prior to amplification (220 μl of a 10 μmolar solution). The sample in Tube C also contained YO-[…] fluorescent dye (0.1 μmolar) which had been added prior to amplification (220 μl of a 10 μmolar solution). The DNA polymerase (88 μl) and target HIV-I DNA target nucleic acid (220 μl) were then added to each tube, and the contents of the each of the three tubes were used to fill the PCR reagent compartment of eight pouches. Amplification was carried out using the same procedures as in Example 1. […] follows: The results of amplification were detected in three ways: (1) color dye scores visually evaluated as 0 (no signal) to 10 (highest signal density), (2) ethidium bromide stained electrophoretic gels, and (3) fluorescence measured on a commercially available Perkin Elmer fluorimeter. Electrophoresis was carried out using commercially available NuSieve 1.5%/Seakem Agarose 1% gels (modified to 2.5% agarose) and ethidium bromide stain. The samples were applied to the gels in conventional TBE buffer (4 μl/100 μl). Three replicate assays of each sample (A, B and C) were carried out using each detection means. The average result for each detection means was as follows: […]

HIV-I DNA [5] = test: Example 2: fluorescence of amplification products; assay type: biochemical
Method: as §1, §2, §3, §4, §5, §6
Amplification was carried out using the same procedures as in Example 1. […]
as §7
Three replicate assays of each sample (A, B and C) were carried out using each detection means. The average result for each detection means was as follows:
Fluorescent signal was generated using a Perkin-Elmer LS-5B fluorimeter, at the following wavelengths for both dyes:
Each amplification product mixture was diluted 100× into a solution of each dye (1 μmolar final concentration). Background signals were obtained from a mixture of amplification reagent mixture and each dye.

[6] = 60 cycles, in the presence of YOYO-1

With `C[n+]1c(C=C2C=CN(CCC[N+](C)(C)C)C=C2)oc2ccccc21` [A] the Kd [1] was 27.8 µM.
`C[n+]1c(C=C2C=CN(CCC[N+](C)(C)C)C=C2)sc2ccccc21` [Compound C] was tested, and the Kd [1] was 17.2 µM, the “Fluorescent Signal” value (HIV-I DNA [2]) was 19.6 and the “usefulness of dye / inhibition of PCR” value (HIV-I DNA [2]) was “useful”.
With `C[n+]1c(C=C2C=CN(CCC[N+](C)(C)C)c3ccccc32)sc2ccccc21` [Compound G] the Kd [1] was 2.78 µM, the “Fluorescent Signal” value (HIV-I DNA [2]) was 8.32 and the “usefulness of dye / inhibition of PCR” value (HIV-I DNA [2]) was “useful”.
`C[n+]1c(C=CC=C2C=CN(CCC[N+](C)(C)C)c3ccccc32)sc2ccccc21` [Compound H] was tested, and the Kd [1] was 9.09 µM, the “Fluorescent Signal” value (HIV-I DNA [2]) was 15.5 and the “usefulness of dye / inhibition of PCR” value (HIV-I DNA [2]) was “useful”.
With `C[n+]1c(C=CC=C2C=CN(CCC[N+](C)(C)C)C=C2)sc2ccccc21` [D] the Kd [1] was 11.5 µM.
`C[n+]1c(C=CC=C2C=CN(CCC[N+](C)(C)C)c3ccccc32)oc2ccccc21` [F] was tested, and the Kd [1] was 16.7 µM.
In the case of `CN1/C(=C/c2cc[n+](CCC[N+](C)(C)CCC[N+](C)(C)CCC[n+]3ccc(/C=C4\Sc5ccccc5N4C)c4ccccc43)c3ccccc23)Sc2ccccc21.[I-].[I-].[I-].[I-]` [TOTO-1, reference compound], the “Fluorescent Signal” value (HIV-I DNA [2]) is reported as 2.70.
For `C[n+]1c(C=C2C=CN(CCC[N+](C)(C)CCC[N+](C)(C)CCCN3C=CC(=Cc4oc5ccccc5[n+]4C)c4ccccc43)c3ccccc32)oc2ccccc21` [YOYO-1], the “effect of dye on amplification (color scores)” value (HIV-I DNA [3]) was “inhibited amplification”, the “Average Color Score” value (HIV-I DNA [3]; leuco dye, 0 (no signal) to 10 (highest signal density), 40 cycles) was 0 and the “difference with modified protocol, by gel electrophoresis” value (HIV-I DNA [4]; [6]) was “not by gel electrophoresis”. The “effect of dye on amplification (gel)” value (HIV-I DNA [4]; dye added prior to amplification) was “stopped amplification”, the “Positive/negative Gel Bands” value (HIV-I DNA [4]; dye added prior to amplification, 40 cycles) was 5 Negatives out of 5 bands and the “difference with modified protocol, by fluorescence” value (HIV-I DNA [5]; [6]) was “small and was detectable by fluorescence”. The “Fluorescence, dye added after amplification (Sample A)” value (HIV-I DNA [5]; Sample A, dye added after amplification, replicates, 491/509 nm) was 7.1 Fluorescent Units and 6.6 Fluorescent Units and 6.0 Fluorescent Units (2×), the Background fluorescence (HIV-I DNA [5]; amplification reagent mixture and dye, excitation 491 nm, emission 509 nm) was 0.09 Fluorescent Units and the “effect of dye on amplification / overall signal” value (HIV-I DNA [5]; comparison of the two dyes (fluorescence)) was “considerably inhibits the amplification process”. For the same molecule, the “Fluorescence, dye present during amplification (Samples B, C)” value (HIV-I DNA [5]; dye added prior to amplification, replicates, 491/509 nm) was 1.5 Fluorescent Units (3×) and 1.4 Fluorescent Units (2×), the nucleic acid staining (HIV-I DNA [5]; in words) was “high nucleic acid staining” and the “Fluorescent Signal” value (HIV-I DNA [2]) was 2.18. For the same molecule, the “usefulness of dye / inhibition of PCR” value (HIV-I DNA [2]) was “not useful because they generally inhibited PCR”.
In the case of TOTO-3 [reference compound], the “Fluorescent signal and its repeatability (in words)” value (HIV-I DNA [2]; Table II footnote) is reported as “high fluorescent signal in one experiment” and the “Fluorescent Signal” value (HIV-I DNA [2]) is reported as 8.45.
